The values below come from US11596639B2, “Substituted indole Mcl-1 inhibitors” (Vanderbilt University, priority 2016, dated 2023).

In the assay the test system is H929 human cancer cell lines. Kind of assay: Cellular viability / proliferation (Cell TiterGlo, 72 h). It is filed as cell-based. The procedure: Cellular Viability of Human Tumor Cell Lines
To evaluate compound effect on cellular proliferation, cells were plated at 1,000 cells/well in 96-well tissue culture plates in a total volume of 90 μL medium supplemented with 10% FBS (Sigma, Saint Louis, Mo.). 24 hours later, 10 μL of compound (in a 2-fold serial dilution) is added to the cells for a top concentration of 50 μM and a final DMSO concentration <1%. After 72 hours, 50 μL of Cell TiterGlo (Promega, Madison, Wis., USA) reagent is added to each well and plates are incubated at room temperature, in the dark, for 30 minutes. Luminescence is measured on a BioTek Cytation 3. Luminescence values are imported into a template in XLFit (Guildford, Surrey, UK) that uses a four-parameter fit to generate an IC50 value for each compound dilution series on the plate.
A general note: Cellular ATP, detected with luciferase, serves as a proxy for viable cell number.

Setting [1] is: read-out: GI50 on cellular proliferation of H929 human cancer cell lines, H929 cells, 72 h, Cell TiterGlo, 10% FBS.
Where [2] appears, read: Homo sapiens, NCI-H929, 72 h, read-out: GI50 on cellular proliferation of H929 human cancer cell lines, H929 cells, 72 h, Cell TiterGlo, 10% FBS.

Like-named read-outs stand apart in the source and are kept apart here. Where only a bound is given, the exact number is not on record here.

For `Cc1cc(OCCCc2c3n(c4c(-c5c(C)ncnc5C)c(C)ccc24)[C@H](C)CN(c2cccc4cc(C(=O)O)n(Cc5ccccn5)c24)C3=O)cc(C)c1Cl` (atropisomer, axis not shown) [Example 276, (R)-7-(10-(3-(4-chloro-3,5-dimethylphenoxy)propyl)-6-(4,6-dimethylpyrimidin-5-yl)-4,7-dimethyl-1-oxo-3,4-dihydropyrazino[1,2-a]indol-2(1H)-yl)-1-(pyridin-2-ylmethyl)-1H-indole-2-carboxylic acid], the GI50 under setting [1] came out at 290 nM. Turning to `Cc1cc(OCCCc2c3n(c4c(-c5c(C)nn(C)c5C)c(Cl)ccc24)CCCN(c2cc(C(=O)O)c4ccn(C)c4c2)C3=O)cc(C)c1Cl` (single isomer, unassigned) [Example 431, 6-(8-Chloro-11-(3-(4-chloro-3,5-dimethylphenoxy)propyl)-1-oxo-7-(1,3,5-trimethyl-1H-pyrazol-4-yl)-4,5-dihydro-1H-[1,4]diazepino[1,2-a]indol-2(3H)-yl)-1-methyl-1H-indole-4-carboxylic acid], under setting [2], the GI50 was 2900 nM. On to `Cc1cc(OCCCc2c3n(c4c(-c5c(C)nn(C)c5C)c(Cl)ccc24)CCCN(c2cc(C(=O)O)c4ccn(C)c4c2)C3=O)cc(C)c1Cl` (single isomer, unassigned) [Example 440, 6-(8-chloro-11-(3-(4-chloro-3,5-dimethylphenoxy)propyl)-1-oxo-7-(1,3,5-trimethyl-1H-pyrazol-4-yl)-4,5-dihydro-1H-[1,4]diazepino[1,2-a]indol-2(3H)-yl)-1-methyl-1H-indole-4-carboxylic acid], for which, under setting [1], the GI50 came to 4500 nM. As for `Cc1cc(OCCCc2c3n(c4c(-c5c(C)nn(C)c5C)c(Cl)ccc24)CCCN(Cc2cc(C(=O)O)ccn2)C3=O)cc(C)c1Cl` [Example 43, 2-((8-Chloro-11-(3-(4-chloro-3,5-dimethylphenoxy)propyl)-1-oxo-7-(1,3,5-trimethyl-1H-pyrazol-4-yl)-4,5-dihydro-1H-[1,4]diazepino[1,2-a]indol-2(3H)-yl)methyl)isonicotinic acid], the GI50 under setting [2] stood at 9400 nM. For the molecule `Cc1cc(OCCCc2c3n(c4c(-c5c(C)nn(C)c5C)c(Cl)ccc24)CCCN(c2ccc(C(=O)O)c4ccn(C)c24)C3=O)cc(C)c1Cl` [Example 55, 7-(8-Chloro-11-(3-(4-chloro-3,5-dimethylphenoxy)propyl)-1-oxo-7-(1,3,5-trimethyl-1H-pyrazol-4-yl)-4,5-dihydro-1H-[1,4]diazepino[1,2-a]indol-2(3H)-yl)-1-methyl-1H-indole-4-carboxylic acid], the GI50 under setting [2] came out at 5700 nM.

In the case of `Cc1cc(OCCCc2c3n(c4c(-c5c(C)nn(C)c5C)c(Cl)ccc24)CCCN(c2cn(C)c4cc(C(=O)O)ccc24)C3=O)cc(C)c1Cl` [Example 68, 3-(8-Chloro-11-(3-(4-chloro-3,5-dimethylphenoxy)propyl)-1-oxo-7-(1,3,5-trimethyl-1H-pyrazol-4-yl)-4,5-dihydro-1H-[1,4]diazepino[1,2-a]indol-2(3H)-yl)-1-methyl-1H-indole-6-carboxylic acid], the GI50 under setting [2] came to 350 nM. The same measure, in the same setting: in the case of `Cc1cc(OCCCc2c3n(c4c(-c5c(C)nn(C)c5C)c(Cl)ccc24)[C@H](C)CN(c2cn(C)c4ccc(C(=O)O)cc24)C3=O)cc(C)c1Cl` [Example 76, (R)-3-(7-Chloro-10-(3-(4-chloro-3,5-dimethylphenoxy)propyl)-4-methyl-1-oxo-6-(1,3,5-trimethyl-1H-pyrazol-4-yl)-3,4-dihydropyrazino[1,2-a]indol-2(1H)-yl)-1-methyl-1H-indole-5-carboxylic acid] it was less than 200 nM. `Cc1cc(OCCCc2c3n(c4c(-c5c(C)nn(C)c5C)c(Cl)ccc24)CCCN(c2cn(C)c4ccc(C(=O)O)cc24)C3=O)cc(C)c1Cl` [Example 80, 3-(8-Chloro-11-(3-(4-chloro-3,5-dimethylphenoxy)propyl)-1-oxo-7-(1,3,5-trimethyl-1H-pyrazol-4-yl)-4,5-dihydro-1H-[1,4]diazepino[1,2-a]indol-2(3H)-yl)-1-methyl-1H-indole-5-carboxylic acid]: under setting [2], the GI50 was determined as 250 nM. On the same count and under the same terms, in the case of `Cc1cc(OCCCc2c3n(c4c(-c5c(C)n[nH]c5C)c(Cl)ccc24)[C@H](C)CN(c2cccc4c(C(=O)O)cn(C)c24)C3=O)cc(C)c1Cl` [Example 108, (R)-7-(7-chloro-10-(3-(4-chloro-3,5-dimethylphenoxy)propyl)-6-(3,5-dimethyl-1H-pyrazol-4-yl)-4-methyl-1-oxo-3,4-dihydropyrazino[1,2-a]indol-2(1H)-yl)-1-methyl-1H-indole-3-carboxylic acid] it was 880 nM. Take `Cc1cc(OCCCc2c3n(c4c(-c5c(C)nn(C)c5C)c(Cl)ccc24)[C@H](C)CN(c2cccc4cc(C(=O)O)ccc24)C3=O)cc(C)c1Cl` [Example 187, (R)-5-(7-Chloro-10-(3-(4-chloro-3,5-dimethylphenoxy)propyl)-4-methyl-1-oxo-6-(1,3,5-trimethyl-1H-pyrazol-4-yl)-3,4-dihydropyrazino[1,2-a]indol-2(1H)-yl)-2-naphthoic acid]: under setting [1], the GI50 is less than 200 nM. As for `Cc1cc(OCCCc2c3n(c4c(-c5c(C)nn(C)c5C)c(Cl)ccc24)[C@@H](C)CN(c2cn(C)c4ccc(C(=O)O)cc24)C3=O)cc(C)c1Cl` [Example 212, (S)-3-(7-chloro-10-(3-(4-chloro-3,5-dimethylphenoxy)propyl)-4-methyl-1-oxo-6-(1,3,5-trimethyl-1H-pyrazol-4-yl)-3,4-dihydropyrazino[1,2-a]indol-2(1H)-yl)-1-methyl-1H-indole-5-carboxylic acid], the GI50 under setting [2] was determined as 3400 nM. On the same count and under the same terms, the figure for `Cc1cc(OCCCc2c3n(c4c(-c5c(C)nn(C)c5C)c(Cl)ccc24)[C@H](C)CN(c2cccc4c(C(N)=O)cn(C)c24)C3=O)cc(C)c1Cl` [Example 357, (R)-7-(7-Chloro-10-(3-(4-chloro-3,5-dimethylphenoxy)propyl)-4-methyl-1-oxo-6-(1,3,5-trimethyl-1H-pyrazol-4-yl)-3,4-dihydropyrazino[1,2-a]indol-2(1H)-yl)-1-methyl-1H-indole-3-carboxamide] is 2000 nM; for `COc1ccc(N2C[C@@H](C)n3c(c(CCCOc4cc(C)c(Cl)c(C)c4)c4ccc(Cl)c(-c5c(C)nc(CN6CCN(C)CC6)nc5C)c43)C2=O)c2c1cc(C(=O)O)n2Cc1ccccn1` [Example 492, (R)-7-(7-Chloro-10-(3-(4-chloro-3,5-dimethylphenoxy)propyl)-6-(4,6-dimethyl-2-((4-methylpiperazin-1-yl)methyl)pyrimidin-5-yl)-4-methyl-1-oxo-3,4-dihydropyrazino[1,2-a]indol-2(1H)-yl)-4-methoxy-1-(pyridin-2-ylmethyl)-1H-indole-2-carboxylic acid] it is 360 nM; for `Cc1cccc(Cn2c(C(=O)O)cc3cc(OCCN(C)C)cc(N4C[C@@H](C)n5c(c(CCCOc6cc(C)c(Cl)c(C)c6)c6ccc(Cl)c(-c7c(C)nn(C)c7C)c65)C4=O)c32)n1` [Example 592, (R)-7-(7-chloro-10-(3-(4-chloro-3,5-dimethylphenoxy)propyl)-4-methyl-1-oxo-6-(1,3,5-trimethyl-1H-pyrazol-4-yl)-3,4-dihydropyrazino[1,2-a]indol-2(1H)-yl)-5-(2-(dimethylamino)ethoxy)-1-((6-methylpyridin-2-yl)methyl)-1H-indole-2-carboxylic acid] it is 880 nM.
